Source: ChEMBL document CHEMBL6153141, “Design, Synthesis, and Mechanism Study of Novel BMX Inhibitors Based on the Core of 1,3,5-Triazin-2-Amine for the Treatment of Gastric Carcinoma” (J Med Chem, 2025)
Activity calls are given as the source filed them. The calls are words filed in the database; no cut-off is given here.

What was measured:
[1] = Half-life in Sprague-Dawley rat at 5 mg/kg, po or 5 mg/kg, iv measured after 24 hrs by LC-MS/MS analysis; type: ADME, organism-based; conditions: in vivo
[2] = target: Cytoplasmic tyrosine-protein kinase BMX (Homo sapiens) (UniProt P51813); assay: Irreversible inhibition of BMX in human HGC-27 cells at 15 uM preincubated for 48 hrs followed by compound washout and measured within 6 hrs by Western blot analysis; type: cell-based
PC-3 = assay: cells; conditions: Homo sapiens, PC-3, 72 h
Description: Anticancer activity against human PC-3 cells assessed as inhibition of cell proliferation incubated for 72 hrs by MTT assay

[3] = Cmax in Sprague-Dawley rat at 5 mg/kg, po or 5 mg/kg, iv measured after 24 hrs by LC-MS/MS analysis; type: ADME, organism-based; conditions: in vivo
HGC-27 [4] = assay: Induction of apoptosis in human HGC-27 cells assessed as increase in cleaved PARP level incubated for 48 hrs by Western blot analysis; type: functional, cell-based; conditions: dose 5-15 µM
MGC-803 [5] = assay: Induction of apoptosis in LC3B knockout human MGC-803 cells assessed as increase in cleaved caspase 9 level at 20 uM by Western blot analysis; type: functional, cell-based
MGC-803 [6] = assay: Anticancer activity against human MGC-803 cells assessed as inhibition of cell proliferation incubated for 72 hrs by MTT assay; type: functional, cell-based; conditions: MGC-803, 72 h
[7] = Toxicity in female BALB/c nude mouse model xenografted with human HGC-27 cells assessed as effect on heart at 30 mg/kg, ip administered for 21 days by H and E staining based analysis; type: organism-based; conditions: in vivo, 504 h, time 21 day
HGC-27 [8] = assay: Antitumor activity against human HGC-27 cells xenografted in female BALB/c nude mouse model assessed as reduction in tumor weight at 30 mg/kg/day, ip administered for 21 days; type: functional, organism-based; conditions: time 21.0 day
HGC-27 [9] = assay: Antitumor activity against human HGC-27 cells xenografted in female BALB/c nude mouse model assessed as reduction in tumor growth at 30 mg/kg/day, ip administered for 21 days relative to control; type: functional; parameters: scale not given: the % may be the effect or the level left; conditions: time 21 day
HGC-27 [10] = assay: Antiproliferative activity against human HGC-27 cells assessed as inhibition of cell viability upto 50 uM by MTT assay; type: functional, cell-based; conditions: time 24-72 hrs
[11] = Metabolic stability in rat liver microsomes assessed as intrinsic clearance at 100 uM measured upto 60 mins in presence of NADPH by LC-MS/MS analysis; type: ADME, Microsome; conditions: read-out: CLH
MGC-803 [12] = assay: Induction of autophagy in human MGC-803 cells assessed as increase in LC3B protein expression incubated for 48 hrs by Western blot analysis; type: functional, cell-based; conditions: dose 10-20 µM
HCT-116 = assay: Anticancer activity against human HCT-116 cells assessed as inhibition of cell proliferation incubated for 72 hrs by MTT assay; type: functional, cell-based; conditions: HCT-116, 72 h
[13] = Toxicity in female BALB/c nude mouse model xenografted with human HGC-27 cells assessed as effect on liver at 30 mg/kg, ip administered for 21 days by H and E staining based analysis; type: organism-based; conditions: in vivo, 504 h, time 21 day
[14] = target: Tyrosine-protein kinase BTK (Homo sapiens, UniProt Q06187); assay: Inhibition of BTK (unknown origin) in presence of ATP at Km concentration
HGC-27 [15] = assay: Induction of autophagy in human HGC-27 cells assessed as increase in LC3B protein expression incubated for 48 hrs by Western blot analysis; type: functional, cell-based; conditions: dose 5-15 µM
DU-145 = assay: cells; conditions: Homo sapiens, DU-145, 72 h
Description: Anticancer activity against human DU-145 cells assessed as inhibition of cell proliferation incubated for 72 hrs by MTT assay

MGC-803 [16] = assay: Cell cycle arrest in human MGC-803 cells assessed as accumulation of cells at G1 phase at 10 to 20 uM incubated for 48 hrs by flow cytometric analysis; type: functional, cell-based; conditions: dose 10-20 µM
HGC-27 [17] = assay: Inhibition of AKT-mTOR signaling in human HGC-27 cells assessed as decrease in phosphorylated mTOR expression at 5 to 15 uM incubated for 48 hrs by Western blot analysis; type: cell-based; conditions: dose 5-15 µM
MGC-803 [18] = assay: Antiproliferative activity against human MGC-803 cells assessed as inhibition of cell viability upto 50 uM by MTT assay; type: functional, cell-based; conditions: time 24-72 hrs
C6661 = assay: Anticancer activity against human C666-1 cells assessed as inhibition of cell proliferation incubated for 72 hrs by MTT assay; type: functional, cell-based; conditions: C6661, 72 h
HGC-27 [19] = assay: Inhibition of AKT-mTOR signaling in human HGC-27 cells assessed as decrease in phosphorylated AKT expression at 5 to 15 uM incubated for 48 hrs by Western blot analysis; type: cell-based; conditions: dose 5-15 µM
[20] = target: Epidermal growth factor receptor (Homo sapiens, UniProt P00533, T790M); assay: Inhibition of EGFR T790M (unknown origin) in presence of ATP at Km concentration
[21] = Toxicity in female BALB/c nude mouse model xenografted with human HGC-27 cells assessed as effect on lung at 30 mg/kg, ip administered for 21 days by H and E staining based analysis; type: organism-based; conditions: in vivo, 504 h, time 21 day
HGC-27 [22] = assay: Induction of apoptosis in human HGC-27 cells assessed as increase in apoptotic cells at 5 to 15 uM incubated for 48 hrs by Annexin V-FITC/PI staining based flow cytometric analysis; type: functional, cell-based; conditions: dose 5-15 µM
MGC-803 [23] = assay: Induction of apoptosis in human MGC-803 cells assessed as increase in apoptotic cells at 10 to 20 uM incubated for 48 hrs by Annexin V-FITC/PI staining based flow cytometric analysis; type: functional, cell-based; conditions: dose 10-20 µM
MCF7 = assay: Anticancer activity against human MCF7 cells assessed as inhibition of cell proliferation incubated for 72 hrs by MTT assay; type: functional, cell-based; conditions: MCF7, 72 h
A549 = assay: cells; conditions: Homo sapiens, A549, 72 h
Description: Anticancer activity against human A549 cells assessed as inhibition of cell proliferation incubated for 72 hrs by MTT assay

MGC-803 [24] = assay: Induction of apoptosis in human MGC-803 cells assessed as increase in cleaved caspase 9 level incubated for 48 hrs by Western blot analysis; type: functional, cell-based; conditions: dose 10-20 µM
[25] = target: Epidermal growth factor receptor (Homo sapiens, UniProt P00533); assay: Inhibition of EGFR (unknown origin) in presence of ATP at Km concentration
MGC-803 [26] = assay: Antiproliferative activity against human MGC-803 cells assessed as inhibition of cell viability incubated for 24 to 72 hrs by MTT assay; type: functional, cell-based; conditions: dose <= 50.0 µM, time 24-72 hrs
MGC-803 [27] = assay: Antiproliferative activity against human MGC-803 cells assessed as reduction in number of EdU-positive cells incubated for 48 hrs by confocal laser scanning microscopic analysis; type: functional, cell-based; conditions: dose 5-15 µM
HCC827 = assay: cells; conditions: Homo sapiens, HCC827, 72 h
Description: Anticancer activity against human HCC827 cells assessed as inhibition of cell proliferation incubated for 72 hrs by MTT assay

MGC-803 [28] = assay: Induction of apoptosis in LC3B knockout human MGC-803 cells assessed as increase in cleaved PARP level at 20 uM by Western blot analysis; type: functional, cell-based
MGC-803 [29] = assay: Inhibition of colony formation in human MGC-803 cells assessed as decrease in clonogenic ability at 2.5 to 10 uM incubated for 48 hrs by crystal violet staining based analysis; type: functional, cell-based; conditions: dose 2.5-10 µM
HGC-27 [30] = assay: Antitumor activity against human HGC-27 cells xenografted in female BALB/c nude mouse model assessed as reduction in tumor volume at 30 mg/kg/day, ip administered for 21 days; type: functional, organism-based; conditions: time 21.0 day
HGC-27 [31] = assay: Inhibition of colony formation in human HGC-27 cells assessed as decrease in clonogenic ability at 2.5 to 10 uM incubated for 48 hrs by crystal violet staining based analysis; type: functional, cell-based; conditions: dose 2.5-10 µM

Sequence of Tyrosine-protein kinase BTK (Q06187 whole entry): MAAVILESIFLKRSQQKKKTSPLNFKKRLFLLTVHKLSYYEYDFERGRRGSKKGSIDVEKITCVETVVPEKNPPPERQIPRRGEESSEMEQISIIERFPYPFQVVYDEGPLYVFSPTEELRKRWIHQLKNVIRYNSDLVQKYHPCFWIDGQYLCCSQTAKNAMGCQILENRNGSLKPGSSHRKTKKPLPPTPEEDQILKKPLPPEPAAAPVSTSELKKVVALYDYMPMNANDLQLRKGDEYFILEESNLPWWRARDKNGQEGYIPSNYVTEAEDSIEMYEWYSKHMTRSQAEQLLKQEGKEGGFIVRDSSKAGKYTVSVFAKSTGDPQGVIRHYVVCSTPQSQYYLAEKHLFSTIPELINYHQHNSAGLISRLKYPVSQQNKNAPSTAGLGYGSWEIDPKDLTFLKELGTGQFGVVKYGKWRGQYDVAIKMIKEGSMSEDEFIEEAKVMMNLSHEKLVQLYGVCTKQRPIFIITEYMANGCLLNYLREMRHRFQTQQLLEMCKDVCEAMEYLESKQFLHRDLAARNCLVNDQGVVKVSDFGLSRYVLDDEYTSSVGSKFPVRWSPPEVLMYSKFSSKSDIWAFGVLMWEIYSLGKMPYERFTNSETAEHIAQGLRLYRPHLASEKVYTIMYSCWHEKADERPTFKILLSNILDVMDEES
Sequence of Epidermal growth factor receptor (Homo sapiens, UniProt P00533) (P00533 whole entry): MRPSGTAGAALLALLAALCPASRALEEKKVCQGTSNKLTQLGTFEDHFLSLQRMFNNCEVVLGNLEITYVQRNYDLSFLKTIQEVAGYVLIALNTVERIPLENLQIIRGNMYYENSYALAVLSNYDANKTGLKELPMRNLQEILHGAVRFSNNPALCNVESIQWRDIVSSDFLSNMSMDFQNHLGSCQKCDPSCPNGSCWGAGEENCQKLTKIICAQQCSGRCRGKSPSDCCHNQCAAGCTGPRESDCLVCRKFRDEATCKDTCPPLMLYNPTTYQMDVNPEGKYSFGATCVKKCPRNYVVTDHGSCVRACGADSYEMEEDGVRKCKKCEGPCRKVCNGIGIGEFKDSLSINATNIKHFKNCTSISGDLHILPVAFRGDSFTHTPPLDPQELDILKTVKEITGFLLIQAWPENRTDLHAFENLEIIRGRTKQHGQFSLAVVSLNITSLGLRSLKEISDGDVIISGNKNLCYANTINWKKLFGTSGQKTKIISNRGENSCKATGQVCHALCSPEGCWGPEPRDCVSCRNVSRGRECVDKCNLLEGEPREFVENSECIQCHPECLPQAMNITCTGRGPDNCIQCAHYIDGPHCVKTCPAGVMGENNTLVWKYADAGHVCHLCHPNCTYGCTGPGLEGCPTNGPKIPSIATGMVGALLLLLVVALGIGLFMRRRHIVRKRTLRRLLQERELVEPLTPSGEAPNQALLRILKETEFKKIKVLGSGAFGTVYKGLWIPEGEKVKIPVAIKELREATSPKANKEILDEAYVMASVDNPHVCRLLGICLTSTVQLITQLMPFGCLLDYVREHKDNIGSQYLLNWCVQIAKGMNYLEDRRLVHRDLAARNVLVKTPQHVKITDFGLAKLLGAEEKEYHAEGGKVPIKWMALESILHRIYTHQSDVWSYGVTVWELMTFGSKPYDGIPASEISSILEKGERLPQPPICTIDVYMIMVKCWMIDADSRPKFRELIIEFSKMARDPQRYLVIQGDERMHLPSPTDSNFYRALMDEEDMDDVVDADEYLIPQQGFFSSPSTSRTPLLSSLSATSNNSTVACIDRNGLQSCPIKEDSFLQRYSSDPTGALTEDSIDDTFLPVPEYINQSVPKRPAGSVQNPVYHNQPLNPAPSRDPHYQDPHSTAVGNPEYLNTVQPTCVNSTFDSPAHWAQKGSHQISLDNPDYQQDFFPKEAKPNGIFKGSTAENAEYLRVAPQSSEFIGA
Sequence of Cytoplasmic tyrosine-protein kinase BMX (Homo sapiens) (P51813 whole entry): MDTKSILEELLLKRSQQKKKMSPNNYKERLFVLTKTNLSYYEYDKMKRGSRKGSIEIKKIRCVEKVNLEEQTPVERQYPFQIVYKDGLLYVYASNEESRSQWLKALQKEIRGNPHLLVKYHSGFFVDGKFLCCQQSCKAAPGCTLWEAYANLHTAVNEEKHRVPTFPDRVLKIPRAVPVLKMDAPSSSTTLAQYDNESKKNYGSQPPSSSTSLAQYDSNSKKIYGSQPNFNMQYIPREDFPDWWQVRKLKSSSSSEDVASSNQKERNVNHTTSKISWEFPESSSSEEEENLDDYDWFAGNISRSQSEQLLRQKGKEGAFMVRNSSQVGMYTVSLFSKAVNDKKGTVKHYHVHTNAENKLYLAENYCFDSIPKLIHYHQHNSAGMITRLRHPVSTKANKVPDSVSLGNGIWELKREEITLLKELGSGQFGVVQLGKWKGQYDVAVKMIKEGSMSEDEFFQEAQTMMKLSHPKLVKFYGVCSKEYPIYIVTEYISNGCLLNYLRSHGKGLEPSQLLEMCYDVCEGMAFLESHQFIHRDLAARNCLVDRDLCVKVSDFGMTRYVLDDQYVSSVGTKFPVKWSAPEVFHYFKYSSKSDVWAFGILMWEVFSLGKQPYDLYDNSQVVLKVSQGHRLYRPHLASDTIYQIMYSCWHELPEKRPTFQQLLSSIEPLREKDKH
Sequence of Epidermal growth factor receptor (Homo sapiens, UniProt P00533, T790M) (P00533 25-1210 T790M limits assumed): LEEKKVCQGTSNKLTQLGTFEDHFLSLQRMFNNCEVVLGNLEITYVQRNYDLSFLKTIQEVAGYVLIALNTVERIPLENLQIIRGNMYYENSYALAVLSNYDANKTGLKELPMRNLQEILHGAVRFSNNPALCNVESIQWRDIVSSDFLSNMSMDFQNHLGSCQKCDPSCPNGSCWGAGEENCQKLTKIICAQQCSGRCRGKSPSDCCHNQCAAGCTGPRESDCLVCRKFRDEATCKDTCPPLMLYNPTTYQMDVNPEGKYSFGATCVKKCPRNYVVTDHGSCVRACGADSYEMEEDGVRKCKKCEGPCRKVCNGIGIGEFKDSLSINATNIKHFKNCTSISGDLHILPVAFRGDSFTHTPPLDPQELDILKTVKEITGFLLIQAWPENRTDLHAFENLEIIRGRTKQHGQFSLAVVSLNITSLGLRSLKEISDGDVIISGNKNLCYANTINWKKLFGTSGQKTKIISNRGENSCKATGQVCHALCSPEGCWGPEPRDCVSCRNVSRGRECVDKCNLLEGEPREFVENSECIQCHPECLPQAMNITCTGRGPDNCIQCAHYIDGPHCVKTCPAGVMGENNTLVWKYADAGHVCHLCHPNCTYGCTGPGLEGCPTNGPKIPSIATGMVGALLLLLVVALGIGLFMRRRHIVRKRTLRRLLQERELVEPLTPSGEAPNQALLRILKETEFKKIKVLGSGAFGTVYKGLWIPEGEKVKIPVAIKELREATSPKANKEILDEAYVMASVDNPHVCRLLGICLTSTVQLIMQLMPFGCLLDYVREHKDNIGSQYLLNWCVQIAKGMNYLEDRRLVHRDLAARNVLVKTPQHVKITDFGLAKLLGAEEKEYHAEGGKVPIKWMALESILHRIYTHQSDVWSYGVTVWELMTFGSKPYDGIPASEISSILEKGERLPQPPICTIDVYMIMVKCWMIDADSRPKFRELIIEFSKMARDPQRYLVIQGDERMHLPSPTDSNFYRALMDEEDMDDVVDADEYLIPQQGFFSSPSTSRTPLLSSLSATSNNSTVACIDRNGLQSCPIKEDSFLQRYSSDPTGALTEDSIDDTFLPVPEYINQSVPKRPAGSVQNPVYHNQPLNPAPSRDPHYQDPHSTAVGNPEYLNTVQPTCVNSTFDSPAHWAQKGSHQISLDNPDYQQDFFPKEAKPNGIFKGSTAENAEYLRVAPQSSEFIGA

In the case of `C=CS(=O)(=O)N1CCC[C@@H](Nc2nc(N)nc(Nc3cccc(Oc4ccccc4)c3)n2)C1`, the half-life [1] is reported as 18.3 h, the inhibition [2] is reported as “Active” and the IC50 (PC-3) is reported as 17.2 µM. The Cmax [3] was 73.5 ng/mL, the Activity (HGC-27 [4]) was “Dose-dependent-effect” and the Activity (MGC-803 [5]) was “Active”. The IC50 (MGC-803 [6]) was 14.4 µM, the Activity [7] was “Non-toxic” and the Activity (HGC-27 [8]) was “Active”. For the same compound, the Activity (HGC-27 [9]) was 49.93%, the Activity (HGC-27 [10]) was “Time-dependent-effect” and the microsomal CLint at 100 µM [11] was 304 µL/min/mg. The Activity (MGC-803 [12]) was “Dose-dependent-effect”, the IC50 (HCT-116) was 15.9 µM and the Activity [13] was “Non-toxic”. The IC50 [14] was 0.187 µM, the Activity (HGC-27 [15]) was “Dose-dependent-effect” and the IC50 (DU-145) was 10.4 µM. For the same compound, the Activity (MGC-803 [16]) was “Active”, the inhibition (HGC-27 [17]) was “Active” and the Activity (MGC-803 [18]) was “Time-dependent-effect”. For the same compound, the IC50 (C6661) was 14.9 µM, the inhibition (HGC-27 [19]) was “Active” and the IC50 [20] was 0.177 µM. The Activity [21] was “Non-toxic”, the Activity (HGC-27 [22]) was “Active” and the Activity (MGC-803 [23]) was “Active”. The IC50 (MCF7) was 8.3 µM, the IC50 (A549) was 29.4 µM and the Activity (MGC-803 [24]) was “Dose-dependent-effect”. The IC50 [25] was 0.468 µM, the Activity (MGC-803 [26]) was “Dose-dependent-effect” and the Activity (MGC-803 [27]) was “Dose-dependent-effect”. The IC50 (HCC827) was 5.7 µM, the Activity (MGC-803 [28]) was “Active” and the inhibition (MGC-803 [29]) was “Active”. For the same compound, the Activity (HGC-27 [30]) was “Active” and the inhibition (HGC-27 [31]) was “Active”.
